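Growth conditions: 96-well plates. Treatment: test compound, 48 hours, 5 concentrations. Analysis: linear interpolation between bracketing concentrations; unreached endpoints set to highest concentration. GI50 = concentration required for 50% inhibition of growth. TGI: total growth inhibition.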 Where a SMILES comes first, the peptide text is derived from it. The star is where a group is joined. Cbz = O=C(OCc1ccccc1)*; NHNH2 = NN*
How the values were obtained:
Assay in all cases: growth of human tumour cells (NCI), 48 h
OVCAR-4 ovarian = system: OVCAR-4 ovarian
HOP-92 NSCLC = system: HOP-92 NSCLC
HOP-62 NSCLC = system: HOP-62 NSCLC
ACHN renal = system: ACHN renal
DU-145 prostate = system: DU-145 prostate
SNB-19 CNS = system: SNB-19 CNS
SK-MEL-5 melanoma = system: SK-MEL-5 melanoma
NCI-H23 lung = system: NCI-H23 lung
UACC-62 melanoma = system: UACC-62 melanoma
SK-OV-3 ovarian = system: SK-OV-3 ovarian

Row | Compound | TGI (OVCAR-4 ovarian) | TGI (HOP-92 NSCLC) | TGI (HOP-62 NSCLC) | TGI (ACHN renal) | TGI (DU-145 prostate) | TGI (SNB-19 CNS) | TGI (SK-MEL-5 melanoma) | TGI (NCI-H23 lung) | TGI (UACC-62 melanoma) | TGI (SK-OV-3 ovarian) | GI50 (OVCAR-4 ovarian)
1 | O=c1c(-c2ccc(Cl)cc2)nnc2n(Cc3ccccc3)c3ccccc3n12 | 30.7 µM | 42.6 µM | 44.9 µM | > 100 µM | > 100 µM | 72 µM | > 100 µM | > 100 µM | – | – | –
2 | O=C(N/N=C/c1ccco1)c1cc(I)cc(I)c1O | > 50 µM | > 50 µM | – | > 50 µM | > 50 µM | > 50 µM | 34.4 µM | > 50 µM | > 50 µM | – | –
3 | Cc1c2ncccc2cc2oc3ccccc3c(=O)c12 | > 100 µM | 92.7 µM | > 100 µM | > 100 µM | > 100 µM | – | > 100 µM | > 100 µM | > 100 µM | > 100 µM | –
4 | CCOc1cc(-c2nc3ccccn3c2/N=C/c2cc(Br)ccc2O)ccc1O | 38.7 µM | 64.5 µM | 44.8 µM | > 100 µM | 70.3 µM | 52.6 µM | > 100 µM | > 100 µM | 57 µM | 92.7 µM | –
5 | CC1(C)CNC(=O)C2(C=NC(C)(C)CNC(=O)C3(C=N1)CCCO3)CCCO2 (stereo not drawn) | > 10 µM | > 10 µM | > 10 µM | > 10 µM | > 10 µM | > 10 µM | > 10 µM | > 10 µM | > 10 µM | > 10 µM | –
6 | COc1c(Br)cc(CC(N)=O)c(O)c1Br | > 100 µM | > 100 µM | > 100 µM | > 100 µM | – | > 100 µM | > 100 µM | > 100 µM | > 100 µM | > 100 µM | –
7 | Cc1nc(C)c(Cc2ccccc2)o1 | > 100 µM | – | > 100 µM | > 100 µM | > 100 µM | > 100 µM | > 100 µM | > 100 µM | > 100 µM | > 100 µM | –
8 | CC1(C)OCC2OC3([C@H]4OC(C)(C)O[C@@H]4CO)OC(C)(C)OC3C2O1 (stereo partly drawn) | > 100 µM | > 100 µM | > 100 µM | > 100 µM | > 100 µM | > 100 µM | > 100 µM | > 100 µM | > 100 µM | – | –
9 | Nc1ccc2[nH]c(-c3cccc(Cl)c3)cc(=O)c2c1 | > 100 µM | 9.69 µM | > 100 µM | > 100 µM | – | > 100 µM | > 100 µM | > 100 µM | > 100 µM | > 100 µM | > 100 µM
10 | Nc1c(C(=O)c2ccc(Cl)cc2)[nH]c(NCc2ccccc2)c1C(=S)Nc1ccccc1 | 4.15 µM | 9.02 µM | 12.9 µM | 4.71 µM | 13.1 µM | 15.1 µM | – | 5.95 µM | 21 µM | 49.8 µM | –
11 | Cc1nn(-c2cc(Cl)ccc2[N+](=O)[O-])c(C)c1Cl | > 100 µM | – | > 100 µM | > 100 µM | > 100 µM | > 100 µM | > 100 µM | > 100 µM | > 100 µM | > 100 µM | –
12 | COC(=O)CC(NC(=O)OCc1ccccc1)C(=O)NC(CC(=O)OC)C(=O)NC(CC(=O)OC)C(=O)NC(CC(=O)OC)C(=O)NC(CC(=O)OC)C(=O)NC(CC(=O)OC)C(=O)NN (stereo not drawn) (Cbz-D(OMe)D(OMe)D(OMe)D(OMe)D(OMe)D(OMe)-NHNH2; configuration not given here) | > 100 µM | > 100 µM | > 100 µM | > 100 µM | – | > 100 µM | > 100 µM | – | > 100 µM | > 100 µM | –
13 | COc1cc(/C=C\C(=O)O)ccc1OCc1ccccc1 | – | > 100 µM | > 100 µM | > 100 µM | > 100 µM | > 100 µM | > 100 µM | > 100 µM | > 100 µM | > 100 µM | –
14 | CCOC(=O)C(CC#Cc1ccc(C#CCC(NC(C)=O)C(=O)OCC)cc1)NC(C)=O (stereo not drawn) | > 100 µM | – | > 100 µM | > 100 µM | > 100 µM | > 100 µM | > 100 µM | > 100 µM | > 100 µM | > 100 µM | –
15 | COC(=O)c1ccc(C=Nc2ccc(S(N)(=O)=O)cc2)cc1 | > 100 µM | > 100 µM | > 100 µM | > 100 µM | > 100 µM | > 100 µM | > 100 µM | – | > 100 µM | > 100 µM | –
16 | C=CCOCCCCC(C(C)=O)C(=O)OC (stereo not drawn) | > 100 µM | > 100 µM | – | > 100 µM | > 100 µM | > 100 µM | > 100 µM | > 100 µM | > 100 µM | > 100 µM | –
17 | Cn1c2ccccc2n2c(=O)c3cc([N+](=O)[O-])ccc3c(C#N)c12 | > 100 µM | – | > 100 µM | > 100 µM | > 100 µM | > 100 µM | > 100 µM | > 100 µM | > 100 µM | > 100 µM | –
18 | O=C(O)C(CS)N=c1c2ccccc2n(O)c2ccccc12 (stereo not drawn) | > 100 µM | – | > 100 µM | > 100 µM | – | > 100 µM | > 100 µM | > 100 µM | > 100 µM | > 100 µM | –
19 | CC1CC(=O)Nc2nc3ccccc3n21 (stereo not drawn) | > 100 µM | > 100 µM | > 100 µM | > 100 µM | – | > 100 µM | > 100 µM | > 100 µM | > 100 µM | > 100 µM | –
20 | COC(=O)/C=C/c1cc(OC)c(OC)c(OC)c1 | > 100 µM | > 100 µM | > 100 µM | > 100 µM | – | > 100 µM | > 100 µM | > 100 µM | > 100 µM | > 100 µM | –
21 | COc1ccc2c(c1)CC1=C(O2)c2ccc(OC)cc2OC1 | 90.1 µM | – | > 100 µM | 36.5 µM | > 100 µM | – | 42.4 µM | > 100 µM | 39.2 µM | > 100 µM | –
22 | O=C(Cc1ccc([N+](=O)[O-])cc1)OCC#CCOC(=O)Cc1ccc([N+](=O)[O-])cc1 | > 10 µM | > 10 µM | – | > 10 µM | – | > 10 µM | > 10 µM | > 10 µM | > 10 µM | > 10 µM | –
23 | O=C(O)C(CO)NC(=O)n1c2ccccc2c2ccccc21 (stereo not drawn) | – | > 100 µM | > 100 µM | > 100 µM | – | > 100 µM | > 100 µM | > 100 µM | > 100 µM | > 100 µM | –

From PubChem BioAssay (NCI)
